Laboratory results from ChEMBL document CHEMBL3600286, “Initial optimization and series evolution of diaminopyrimidine inhibitors of interleukin-1 receptor associated kinase 4” (Bioorg Med Chem Lett, 2015).
Values after ≈ are worked out from the molar mass of the structure shown. Active and inactive are the calls of the source. The calls are words filed in the database; no cut-off is given here.

Legend:
[1] = molecular target: T1, Interleukin-1 receptor-associated kinase 4 (Homo sapiens, UniProt Q9NWZ3); test: Inhibition of human IRAK4 (unknown origin)
T1 sequence (Q9NWZ3 whole entry): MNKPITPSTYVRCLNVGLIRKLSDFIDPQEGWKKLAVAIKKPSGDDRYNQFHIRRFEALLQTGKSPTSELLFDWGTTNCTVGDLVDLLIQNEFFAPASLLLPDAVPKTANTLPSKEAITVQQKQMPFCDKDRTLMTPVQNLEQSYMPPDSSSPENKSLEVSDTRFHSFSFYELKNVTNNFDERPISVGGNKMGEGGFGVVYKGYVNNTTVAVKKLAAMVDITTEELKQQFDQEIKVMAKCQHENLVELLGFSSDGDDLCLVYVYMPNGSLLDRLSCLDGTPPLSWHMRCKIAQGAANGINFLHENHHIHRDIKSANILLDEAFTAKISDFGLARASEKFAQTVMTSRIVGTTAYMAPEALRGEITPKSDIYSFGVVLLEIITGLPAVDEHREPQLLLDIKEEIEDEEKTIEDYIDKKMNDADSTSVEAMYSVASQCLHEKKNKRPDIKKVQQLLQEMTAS

[2] = molecular target: T1, Interleukin-1 receptor-associated kinase 4; test: Inhibition of IRAK4-dependent TLR4 signaling in human THP1-XBlue cells containing NF-kappaB-inducible SEAP reporter gene assessed as inhibition of LPS-EK-induced TLR4 activation incubated at 37 degC for 1 hr by spectrophotometry; assay type: cell-based, THP-1
[3] = molecular target: T2, Tumor necrosis factor receptor superfamily member 1A (Homo sapiens, UniProt P19438); test: Inhibition of TNFR in human THP1-XBlue cells containing NF-kappaB-inducible SEAP reporter gene assessed as inhibition of TNFalpha-induced TNFR activation incubated at 37 degC for 1 hr by spectrophotometry; assay type: cell-based, THP-1
T2 sequence (P19438 whole entry): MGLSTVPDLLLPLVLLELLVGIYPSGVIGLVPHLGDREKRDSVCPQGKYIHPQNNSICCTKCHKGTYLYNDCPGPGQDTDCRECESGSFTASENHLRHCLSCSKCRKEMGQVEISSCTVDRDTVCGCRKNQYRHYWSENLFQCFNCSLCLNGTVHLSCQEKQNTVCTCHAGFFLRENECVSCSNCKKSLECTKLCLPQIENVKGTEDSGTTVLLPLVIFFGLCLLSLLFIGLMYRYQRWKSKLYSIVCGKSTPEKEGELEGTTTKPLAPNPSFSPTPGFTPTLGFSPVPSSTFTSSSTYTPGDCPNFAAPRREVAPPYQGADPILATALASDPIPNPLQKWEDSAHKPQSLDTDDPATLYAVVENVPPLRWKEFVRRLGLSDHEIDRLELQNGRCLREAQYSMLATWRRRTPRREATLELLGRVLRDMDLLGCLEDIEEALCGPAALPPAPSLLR

Cytochrome P450 3A4 = Cytochrome P450 3A4 (Homo sapiens, UniProt P08684); test: Inhibition of CYP3A4 (unknown origin); assay type: ADME
Cytochrome P450 2D6 = Cytochrome P450 2D6 (Homo sapiens, UniProt P10635); test: Inhibition of CYP2D6 (unknown origin); assay type: ADME
Cytochrome P450 2C9 = Cytochrome P450 2C9 (Homo sapiens, UniProt P11712); test: Inhibition of CYP2C9 (unknown origin); assay type: ADME
[4] = Solubility in pH 7 solution; assay type: physicochemical
[5] = molecular target: T3, Interleukin-1 receptor-associated kinase 4 (Homo sapiens) (UniProt Q9NWZ3); test: Potency index, ratio of IC50 for inhibition of IRAK4-dependent TLR4 signaling in human THP1-XBlue cells containing NF-kappaB-inducible SEAP reporter gene to IC50 for human IRAK4 (unknown origin); assay type: cell-based
T3 sequence (whole entry): T1 sequence (Q9NWZ3 whole entry)

[6] = Apparent permeability in pig LLC-PK1 cells; assay type: ADME, cell-based, Sus scrofa
[7] = molecular target: Receptor-type tyrosine-protein kinase FLT3 (Homo sapiens) (UniProt P36888); test: Inhibition of FLT3 (unknown origin)
[8] = molecular target: Dual specificity protein kinase CLK2 (Homo sapiens) (UniProt P49760); test: Inhibition of CLK2 (unknown origin)
[9] = molecular target: Proto-oncogene tyrosine-protein kinase receptor Ret (Homo sapiens) (UniProt P07949); test: Inhibition of RET (unknown origin)
[10] = molecular target: Platelet-derived growth factor receptor alpha (Homo sapiens) (UniProt P16234); test: Inhibition of PDGFRA (unknown origin)
[11] = molecular target: Misshapen-like kinase 1 (Homo sapiens) (UniProt Q8N4C8); test: Inhibition of MINK1 (unknown origin)
[12] = molecular target: BDNF/NT-3 growth factors receptor (Homo sapiens) (UniProt Q16620); test: Inhibition of TRKB (unknown origin)
[13] = molecular target: Leucine-rich repeat serine/threonine-protein kinase 2 (Homo sapiens) (UniProt Q5S007); test: Inhibition of LRRK2 (unknown origin)
[14] = molecular target: Tyrosine-protein kinase Lck (Homo sapiens) (UniProt P06239); test: Inhibition of LCK (unknown origin)

Sequence of Cytochrome P450 2C9 (P11712 whole entry): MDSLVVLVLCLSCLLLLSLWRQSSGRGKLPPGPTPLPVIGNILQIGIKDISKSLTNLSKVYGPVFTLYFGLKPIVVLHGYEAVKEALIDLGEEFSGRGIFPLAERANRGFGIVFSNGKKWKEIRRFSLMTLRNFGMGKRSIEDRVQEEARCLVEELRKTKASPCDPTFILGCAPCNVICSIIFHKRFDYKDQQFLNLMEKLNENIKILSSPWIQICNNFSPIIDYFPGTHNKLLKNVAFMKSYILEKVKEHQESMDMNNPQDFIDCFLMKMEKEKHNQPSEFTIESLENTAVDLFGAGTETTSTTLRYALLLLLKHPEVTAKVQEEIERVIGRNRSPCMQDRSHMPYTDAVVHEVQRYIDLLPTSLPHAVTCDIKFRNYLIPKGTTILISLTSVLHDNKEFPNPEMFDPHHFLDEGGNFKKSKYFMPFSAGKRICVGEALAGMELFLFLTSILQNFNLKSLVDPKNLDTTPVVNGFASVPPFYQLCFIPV
Sequence of Receptor-type tyrosine-protein kinase FLT3 (Homo sapiens) (P36888 whole entry): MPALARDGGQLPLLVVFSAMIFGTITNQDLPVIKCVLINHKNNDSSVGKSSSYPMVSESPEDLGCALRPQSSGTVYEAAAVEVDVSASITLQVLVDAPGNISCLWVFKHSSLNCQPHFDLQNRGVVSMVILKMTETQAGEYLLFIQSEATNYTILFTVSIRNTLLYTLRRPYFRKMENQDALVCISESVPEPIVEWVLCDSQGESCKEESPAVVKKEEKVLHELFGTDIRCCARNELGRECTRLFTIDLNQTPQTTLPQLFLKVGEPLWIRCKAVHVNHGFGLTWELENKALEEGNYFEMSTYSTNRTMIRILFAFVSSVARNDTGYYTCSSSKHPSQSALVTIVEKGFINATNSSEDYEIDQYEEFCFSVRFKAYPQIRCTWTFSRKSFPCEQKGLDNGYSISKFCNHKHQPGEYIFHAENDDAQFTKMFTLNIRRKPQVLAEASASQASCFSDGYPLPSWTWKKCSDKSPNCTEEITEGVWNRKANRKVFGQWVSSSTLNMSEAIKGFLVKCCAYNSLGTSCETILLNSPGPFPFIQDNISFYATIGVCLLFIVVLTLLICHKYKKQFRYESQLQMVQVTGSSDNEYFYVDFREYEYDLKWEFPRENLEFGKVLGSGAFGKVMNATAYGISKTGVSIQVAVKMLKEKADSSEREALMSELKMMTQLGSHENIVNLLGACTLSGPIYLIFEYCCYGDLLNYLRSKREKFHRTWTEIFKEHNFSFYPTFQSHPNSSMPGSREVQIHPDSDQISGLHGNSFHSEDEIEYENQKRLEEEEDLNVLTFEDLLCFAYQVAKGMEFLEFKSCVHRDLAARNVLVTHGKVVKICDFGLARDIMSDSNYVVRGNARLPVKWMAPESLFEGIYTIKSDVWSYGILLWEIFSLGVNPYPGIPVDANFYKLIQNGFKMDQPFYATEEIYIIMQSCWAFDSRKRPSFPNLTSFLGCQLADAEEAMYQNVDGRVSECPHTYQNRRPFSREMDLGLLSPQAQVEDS
Sequence of Cytochrome P450 2D6 (P10635 whole entry): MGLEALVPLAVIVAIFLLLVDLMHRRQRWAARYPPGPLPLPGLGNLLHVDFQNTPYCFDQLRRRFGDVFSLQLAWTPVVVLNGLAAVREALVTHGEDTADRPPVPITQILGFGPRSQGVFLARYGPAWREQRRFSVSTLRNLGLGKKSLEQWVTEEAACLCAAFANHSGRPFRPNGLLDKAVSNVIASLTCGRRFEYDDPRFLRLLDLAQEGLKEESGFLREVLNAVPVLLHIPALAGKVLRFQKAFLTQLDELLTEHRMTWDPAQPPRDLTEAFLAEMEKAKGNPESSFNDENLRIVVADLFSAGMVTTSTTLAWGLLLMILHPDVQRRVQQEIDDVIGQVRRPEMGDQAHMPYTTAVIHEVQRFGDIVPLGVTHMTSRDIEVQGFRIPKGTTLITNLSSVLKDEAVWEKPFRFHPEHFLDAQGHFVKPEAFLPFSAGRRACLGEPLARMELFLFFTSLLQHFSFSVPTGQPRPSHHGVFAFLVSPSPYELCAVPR
Sequence of Cytochrome P450 3A4 (P08684 whole entry): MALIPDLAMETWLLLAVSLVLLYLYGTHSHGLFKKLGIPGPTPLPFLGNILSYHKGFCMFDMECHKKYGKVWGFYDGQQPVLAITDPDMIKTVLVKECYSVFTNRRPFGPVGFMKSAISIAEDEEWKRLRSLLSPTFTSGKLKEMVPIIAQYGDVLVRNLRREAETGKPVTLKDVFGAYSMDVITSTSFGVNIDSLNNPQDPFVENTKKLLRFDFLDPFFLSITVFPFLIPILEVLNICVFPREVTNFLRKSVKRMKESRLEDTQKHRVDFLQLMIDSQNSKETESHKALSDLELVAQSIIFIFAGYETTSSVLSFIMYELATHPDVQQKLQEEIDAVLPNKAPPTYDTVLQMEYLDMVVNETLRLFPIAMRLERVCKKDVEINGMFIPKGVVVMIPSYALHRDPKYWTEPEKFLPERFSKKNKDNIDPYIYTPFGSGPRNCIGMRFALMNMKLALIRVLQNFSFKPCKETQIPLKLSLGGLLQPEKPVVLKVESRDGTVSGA
Sequence of Leucine-rich repeat serine/threonine-protein kinase 2 (Homo sapiens) (Q5S007 whole entry): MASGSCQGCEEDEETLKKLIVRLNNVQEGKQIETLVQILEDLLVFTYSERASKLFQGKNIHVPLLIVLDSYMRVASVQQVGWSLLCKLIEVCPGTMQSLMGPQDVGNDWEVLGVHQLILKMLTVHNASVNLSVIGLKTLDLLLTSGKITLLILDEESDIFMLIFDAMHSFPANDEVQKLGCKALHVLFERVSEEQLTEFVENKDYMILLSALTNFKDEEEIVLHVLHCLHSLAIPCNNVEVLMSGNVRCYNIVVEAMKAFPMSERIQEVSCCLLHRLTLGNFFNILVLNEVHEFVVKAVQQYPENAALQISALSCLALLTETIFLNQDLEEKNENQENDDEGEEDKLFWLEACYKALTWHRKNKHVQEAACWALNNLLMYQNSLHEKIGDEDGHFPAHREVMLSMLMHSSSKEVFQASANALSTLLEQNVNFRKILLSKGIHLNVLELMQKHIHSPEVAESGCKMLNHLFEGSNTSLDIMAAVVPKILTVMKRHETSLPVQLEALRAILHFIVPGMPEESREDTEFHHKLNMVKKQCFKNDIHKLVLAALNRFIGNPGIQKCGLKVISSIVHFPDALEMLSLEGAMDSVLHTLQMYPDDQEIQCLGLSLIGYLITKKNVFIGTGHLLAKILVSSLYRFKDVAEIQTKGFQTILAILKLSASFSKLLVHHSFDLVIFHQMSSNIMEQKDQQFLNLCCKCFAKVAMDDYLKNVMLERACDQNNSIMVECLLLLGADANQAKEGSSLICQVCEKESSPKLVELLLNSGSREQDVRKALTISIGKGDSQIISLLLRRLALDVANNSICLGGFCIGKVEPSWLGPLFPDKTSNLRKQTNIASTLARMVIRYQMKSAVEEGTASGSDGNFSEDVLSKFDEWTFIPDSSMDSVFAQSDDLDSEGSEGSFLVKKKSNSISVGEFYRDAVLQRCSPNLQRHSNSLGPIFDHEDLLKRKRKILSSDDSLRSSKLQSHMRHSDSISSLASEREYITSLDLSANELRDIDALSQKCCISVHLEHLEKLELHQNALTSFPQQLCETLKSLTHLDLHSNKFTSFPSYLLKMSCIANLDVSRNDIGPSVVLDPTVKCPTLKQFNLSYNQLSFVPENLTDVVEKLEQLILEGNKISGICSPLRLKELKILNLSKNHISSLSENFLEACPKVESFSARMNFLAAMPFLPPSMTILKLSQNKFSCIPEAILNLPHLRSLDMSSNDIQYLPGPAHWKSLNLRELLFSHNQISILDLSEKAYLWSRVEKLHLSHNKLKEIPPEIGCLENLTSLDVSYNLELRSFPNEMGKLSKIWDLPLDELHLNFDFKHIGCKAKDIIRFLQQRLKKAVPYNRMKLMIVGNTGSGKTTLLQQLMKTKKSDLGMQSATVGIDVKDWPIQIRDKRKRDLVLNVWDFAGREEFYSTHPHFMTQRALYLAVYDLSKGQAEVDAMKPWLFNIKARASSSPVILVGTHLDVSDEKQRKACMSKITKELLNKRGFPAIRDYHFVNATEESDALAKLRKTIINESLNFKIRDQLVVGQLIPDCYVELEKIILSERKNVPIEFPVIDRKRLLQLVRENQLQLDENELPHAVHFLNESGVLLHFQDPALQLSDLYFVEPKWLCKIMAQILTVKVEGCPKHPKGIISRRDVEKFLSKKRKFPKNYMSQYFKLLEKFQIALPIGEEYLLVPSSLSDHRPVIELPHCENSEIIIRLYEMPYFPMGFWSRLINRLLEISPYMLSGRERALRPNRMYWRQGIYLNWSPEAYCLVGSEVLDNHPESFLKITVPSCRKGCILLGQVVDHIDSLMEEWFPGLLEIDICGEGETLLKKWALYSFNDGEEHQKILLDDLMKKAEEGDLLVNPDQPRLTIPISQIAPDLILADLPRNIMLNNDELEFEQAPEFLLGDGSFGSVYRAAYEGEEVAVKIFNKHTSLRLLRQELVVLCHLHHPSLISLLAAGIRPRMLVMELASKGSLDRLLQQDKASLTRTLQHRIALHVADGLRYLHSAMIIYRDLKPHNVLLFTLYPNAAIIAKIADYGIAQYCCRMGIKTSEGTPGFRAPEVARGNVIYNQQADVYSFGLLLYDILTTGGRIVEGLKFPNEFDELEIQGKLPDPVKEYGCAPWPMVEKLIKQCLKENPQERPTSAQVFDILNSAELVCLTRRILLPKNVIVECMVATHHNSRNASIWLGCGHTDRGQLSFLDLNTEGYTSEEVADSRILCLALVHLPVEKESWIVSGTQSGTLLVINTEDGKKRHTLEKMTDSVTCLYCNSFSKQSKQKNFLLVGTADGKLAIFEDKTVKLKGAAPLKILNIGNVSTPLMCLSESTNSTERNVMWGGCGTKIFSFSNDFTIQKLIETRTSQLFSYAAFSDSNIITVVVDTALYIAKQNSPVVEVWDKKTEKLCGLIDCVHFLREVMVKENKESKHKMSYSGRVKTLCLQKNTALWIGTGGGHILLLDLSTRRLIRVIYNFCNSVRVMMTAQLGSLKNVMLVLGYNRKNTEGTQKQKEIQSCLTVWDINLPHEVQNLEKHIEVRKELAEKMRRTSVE

Molecule `Cc1cc(Nc2ncc(-c3cscn3)c(N[C@@H]3C[C@H](CO)[C@@H](O)[C@H]3O)n2)cc(C)n1` has an IC50 [1] of 0.852 µM.

`COc1cc(Nc2ncc(-c3ccc4ccccc4n3)c(N[C@@H]3C[C@H](CO)[C@@H](O)[C@H]3O)n2)ccn1` gave an IC50 [2] of 0.025 µM, an IC50 [3] of over 31 µM and an IC50 (Cytochrome P450 3A4) of over 50 µM. It also gave an IC50 (Cytochrome P450 2D6) of over 50 µM, an IC50 (Cytochrome P450 2C9) of over 50 µM and a solubility [4] of 22 µM (≈ 10.4 µg/mL). The Ratio IC50 [5] was 10 and the Papp [6] was over 150 nm/s.

Molecule `OC[C@H]1C[C@@H](Nc2nc(Nc3ccnc(OC4CC4)c3)ncc2-c2ccc3ccccc3n2)[C@H](O)[C@@H]1O` has an IC50 [1] of 0.044 µM, an IC50 [2] of 0.341 µM and an IC50 [3] of over 31 µM. It also gave an IC50 (Cytochrome P450 3A4) of over 50 µM, an IC50 (Cytochrome P450 2D6) of over 50 µM and an IC50 (Cytochrome P450 2C9) of over 50 µM. It also gave a solubility [4] of 31 µM (≈ 15.5 µg/mL), a Ratio IC50 [5] of 10 and a Papp [6] of over 150 nm/s.

`OC[C@H]1C[C@@H](Nc2nc(Nc3cncnc3)ncc2-c2nc3cnccc3s2)[C@H](O)[C@@H]1O` showed an IC50 [1] of 0.012 µM.

Molecule `Cc1cc(Nc2ncc(-c3nc4ccncc4s3)c(N[C@@H]3C[C@H](CO)[C@@H](O)[C@H]3O)n2)ccn1` has an IC50 [1] of 0.012 µM.

`OC[C@H]1C[C@@H](Nc2nc(Nc3ccncc3)ncc2-c2nccs2)[C@H](O)[C@@H]1O` showed an IC50 [1] of over 20 µM.

Work on `OC[C@H]1C[C@@H](Nc2nc(Nc3cccnc3)ncc2-c2nc3ccncc3s2)[C@H](O)[C@@H]1O` yielded an IC50 [1] of 0.018 µM.

Molecule `Cc1cc(Nc2ncc(-c3nc(-c4ccccc4)cs3)c(N[C@@H]3C[C@H](CO)[C@@H](O)[C@H]3O)n2)ccn1` has an IC50 [1] of 0.011 µM, an IC50 [2] of 0.094 µM and an IC50 [3] of over 31 µM. It also gave an IC50 (Cytochrome P450 3A4) of over 50 µM, an IC50 (Cytochrome P450 2D6) of over 50 µM and an IC50 (Cytochrome P450 2C9) of over 50 µM. The solubility [4] was 19 µM (≈ 9.32 µg/mL), the Ratio IC50 [5] was 10 and the Papp [6] was over 150 nm/s.

Work on `Cc1cc(Nc2ncc(-c3cncs3)c(N[C@@H]3C[C@H](CO)[C@@H](O)[C@H]3O)n2)cc(C)n1` yielded an IC50 [1] of 2.11 µM.

Molecule `COc1cc(Nc2ncc(-n3cccn3)c(N[C@@H]3C[C@H](CO)[C@@H](O)[C@H]3O)n2)ccn1` has an IC50 [1] of 6.01 µM.

In the case of `Cc1cc(Nc2cc(N[C@@H]3C[C@H](CO)[C@@H](O)[C@H]3O)c(-c3nc4ccccc4s3)cn2)cc(C)n1`, the IC50 [1] is reported as 0.014 µM, the inhibition [7] is reported as “Active” and the inhibition [8] is reported as “Active”. For the same molecule, the inhibition [9] was “Active”, the inhibition [10] was “Active” and the IC50 [2] was 3.45 µM. It also gave an IC50 [3] of over 31 µM, an IC50 (Cytochrome P450 3A4) of over 50 µM and an IC50 (Cytochrome P450 2D6) of over 50 µM. The IC50 (Cytochrome P450 2C9) was over 50 µM, the solubility [4] was under 4 µM and the Ratio IC50 [5] was over 240. The Papp [6] was 20 nm/s.

`COc1cc(Nc2ncc(-c3nc(-c4ccccc4)cs3)c(N[C@@H]3C[C@H](CO)[C@@H](O)[C@H]3O)n2)ccn1` showed an IC50 [1] of 0.089 µM.

For `OC[C@H]1C[C@@H](Nc2nc(NC3CC3)ncc2-c2nc3cnccc3s2)[C@H](O)[C@@H]1O`, the IC50 [1] was 0.647 µM.

For `Cc1cc(Nc2ncc(-c3ccc4ccccc4n3)c(N[C@@H]3C[C@H](CO)[C@@H](O)[C@H]3O)n2)cc(C)n1`, the IC50 [1] was 0.00074 µM, the inhibition [7] was “Active” and the inhibition [11] was “Active”. The inhibition [12] was “Active”, the inhibition [13] was “Active” and the inhibition [14] was “Active”. For the same molecule, the inhibition [8] was “Active”, the IC50 [2] was 0.055 µM and the IC50 [3] was over 31 µM. For the same molecule, the IC50 (Cytochrome P450 3A4) was over 50 µM, the IC50 (Cytochrome P450 2D6) was over 50 µM and the IC50 (Cytochrome P450 2C9) was over 50 µM. For the same molecule, the solubility [4] was 72 µM (≈ 34 µg/mL), the Ratio IC50 [5] was 10 and the Papp [6] was over 150 nm/s.

Molecule `OC[C@H]1C[C@@H](Nc2nc(Nc3cccnc3)ncc2-c2nc3cnccc3s2)[C@H](O)[C@@H]1O` has an IC50 [1] of 0.011 µM.

In the case of `Cc1cc(Nc2ncc(-c3nc(-c4ccccc4)cs3)c(N[C@@H]3C[C@H](CO)[C@@H](O)[C@H]3O)n2)cc(C)n1`, the IC50 [1] is reported as 0.004 µM, the inhibition [7] is reported as “Active” and the inhibition [11] is reported as “Active”. The inhibition [12] was “Active”, the inhibition [13] was “Active” and the IC50 [2] was 0.087 µM. The IC50 [3] was over 31 µM, the IC50 (Cytochrome P450 3A4) was over 50 µM and the IC50 (Cytochrome P450 2D6) was over 50 µM. It also gave an IC50 (Cytochrome P450 2C9) of over 50 µM, a solubility [4] of 17 µM (≈ 8.58 µg/mL) and a Ratio IC50 [5] of 10. For the same molecule, the Papp [6] was over 150 nm/s.

In the case of `Cc1cc(Nc2ncc(-n3cccn3)c(N[C@@H]3C[C@H](CO)[C@@H](O)[C@H]3O)n2)cc(C)n1`, the IC50 [1] is reported as 0.932 µM.

`CC(C)Oc1cc(Nc2ncc(-c3ccc4ccccc4n3)c(N[C@@H]3C[C@H](CO)[C@@H](O)[C@H]3O)n2)ccn1` gave an IC50 [2] of 0.216 µM, an IC50 [3] of over 31 µM and an IC50 (Cytochrome P450 3A4) of over 50 µM. The IC50 (Cytochrome P450 2D6) was over 50 µM, the IC50 (Cytochrome P450 2C9) was over 50 µM and the solubility [4] was 23 µM (≈ 11.6 µg/mL). The Ratio IC50 [5] was 10 and the Papp [6] was over 150 nm/s.
